Measurements published in patent US10421761B2, “Compounds for kinase modulation, and indications therefor” (Plexxikon Inc., priority 2013, dated 2019).

Test system: B9 cells
Details: Repl. 1; B9 cells

CCCS(=O)(=O)Nc1ccc(F)c(C(=O)c2c[nH]c3ncc(-c4ccc(Cl)cc4)cc23)c1F [vemurafenib]
probe 1426300_at response, Alcam (activated leukocyte cell adhesion molecule): 2.35 | probe 1426306_a_at response, LOC100046560 /// Maged2 (similar to melanoma antigen family D, 2 /// melanoma antigen, family D, 2): 2.18 | probe 1426708_at response, Antxr2 (anthrax toxin receptor 2): 2.19 | probe 1426806_at response, Obfc2a (oligonucleotide/oligosaccharide-binding fold containing 2A): 2.33 | probe 1426848_at response, LOC100047481 /// Sec24b (similar to SEC24 related gene family, member B (S. cerevisiae) /// Sec24 related gene family, member B (S. cerevisiae)): 0.69 | probe 1426972_at response, Sec24d (Sec24 related gene family, member D (S. cerevisiae)): 2.06 | probe 1427278_at response, Clip4 (CAP-GLY domain containing linker protein family, member 4): 1.98 | probe 1427364_a_at response, Odc1 (ornithine decarboxylase, structural 1): 2.73 | probe 1427512_a_at response, Lama3 (laminin, alpha 3): 2.61 | probe 1427527_a_at response, Pthlh (parathyroid hormone-like peptide): 2.73 | probe 1427885_at response, Pold4 (polymerase (DNA-directed), delta 4): 2.20 | probe 1428114_at response, Slc14a1 (solute carrier family 14 (urea transporter), member 1): 2.61 | probe 1428195_at response, Ahcyl2 (S-adenosylhomocysteine hydrolase-like 2): 2.42 | probe 1428228_at response, Pgm3 (phosphoglucomutase 3): 2.18 | probe 1428419_at response, 5430411K18Rik (RIKEN cDNA 5430411K18 gene): 2.16 | probe 1428851_at response, 1300014I06Rik (RIKEN cDNA 1300014I06 gene): 2.30 | probe 1429700_at response, 3110040M04Rik (RIKEN cDNA 3110040M04 gene): 3.18 | probe 1429844_at response, 2310043J07Rik (RIKEN cDNA 2310043J07 gene): 0.52 | probe 1430010_at response, Ncapd2 (non-SMC condensin I complex, subunit D2): 0.43 | probe 1430567_at response, Spink5 (serine peptidase inhibitor, Kazal type 5): 0.46 | probe 1430623_s_at response, Obfc2a (oligonucleotide/oligosaccharide-binding fold containing 2A): 2.11 | probe 1430700_a_at response, Pla2g7 (phospholipase A2, group VII (platelet-activating factor acetylhydrolase, plasma)): 2.36 | probe 1431416_a_at response, Jam2 (junction adhesion molecule 2): 2.12 | probe 1431422_a_at response, Dusp14 (dual specificity phosphatase 14): 2.14 | probe 1431611_a_at response, Cadm1 (cell adhesion molecule 1): 2.15 | probe 1431688_at response, LOC73899 (hypothetical LOC73899): 2.56 | probe 1431691_a_at response, Rab31 (RAB31, member RAS oncogene family): 1.98 | probe 1433909_at response, Syt17 (synaptotagmin XVII): 2.02 | probe 1434059_at response, B230312A22Rik (RIKEN cDNA B230312A22 gene): 2.26 | probe 1434092_at response, Atg9b (ATG9 autophagy related 9 homolog B (S. cerevisiae)): 2.04 | probe 1434109_at response, Sh3bgrl2 (SH3 domain binding glutamic acid-rich protein like 2): 2.50 | probe 1434252_at response, Tmcc3 (transmembrane and coiled coil domains 3): 1.99 | probe 1434601_at response, Amigo2 (adhesion molecule with Ig like domain 2): 2.11 | probe 1434957_at response, Cdon (cell adhesion molecule-related/down-regulated by oncogenes): 0.44 | probe 1435066_at response, Pitpnc1 (phosphatidylinositol transfer protein, cytoplasmic 1): 2.04 | probe 1435176_a_at response, Id2 (inhibitor of DNA binding 2): 0.44 | probe 1435330_at response, Pyhin1 (pyrin and HIN domain family, member 1): 2.34 | probe 1435331_at response, Pyhin1 (pyrin and HIN domain family, member 1): 3.91 | probe 1435460_at response, Prkg2 (protein kinase, cGMP-dependent, type II): 2.07 | probe 1435695_a_at response, Ggct (gamma-glutamyl cyclotransferase): 2.16 | probe 1436100_at response, Sh2d5 (SH2 domain containing 5): 2.12 | probe 1436329_at response, Egr3 (early growth response 3): 2.75 | probe 1436584_at response, Spry2 (sprouty homolog 2 (Drosophila)): 3.28 | probe 1436659_at response, Dclk1 (doublecortin-like kinase 1): 2.44 | probe 1436917_s_at response, Gpsm1 (G-protein signalling modulator 1 (AGS3-like, C. elegans)): 2.22 | probe 1436944_x_at response, Pisd /// Pisd-ps1 ///Pisd-ps3 (phosphatidylserine decarboxylase /// phosphatidylserine decarboxylase, pseudogene 1 /// phosphatidylserine decarboxylase, pseudogene 3): 0.53 | probe 1437092_at response, Clip4 (CAP-GLY domain containing linker protein family, member 4): 2.37 | probe 1437100_x_at response, Pim3 (proviral integration site 3): 2.03 | probe 1437199_at response: 4.17 | probe 1437271_at response, Clcf1 (cardiotrophin-like cytokine factor 1): 2.09 | probe 1437486_at response, Gprc5a (G protein-coupled receptor, family C, group 5, member A): 2.49 | probe 1437982_x_at response, Cox15 (COX15 homolog, cytochrome c oxidase assembly protein (yeast)): 0.51 | probe 1438038_at response, 4930402H24Rik (RIKEN cDNA 4930402H24 gene): 2.10 | probe 1438664_at response, Prkar2b (protein kinase, cAMP dependent regulatory, type II beta): 0.44 | probe 1438699_at response, Srd5a1 (steroid 5 alpha-reductase 1): 1.89 | probe 1439016_x_at response, Sprr2a (small proline-rich protein 2A): 0.40 | probe 1439109_at response, Ccdc68 (coiled-coil domain containing 68): 0.45 | probe 1439434_x_at response, Sh2d5 (SH2 domain containing 5): 2.06 | probe 1439797_at response, Ppard (peroxisome proliferator activator receptor delta): 2.09 | probe 1439878_at response, Ivl (involucrin): 3.09 | probe 1440169_x_at response, Ifnar2 (interferon (alpha and beta) receptor 2): 0.53 | probe 1440559_at response, Hmga2-ps1 (high mobility group AT-hook 2, pseudogene 1): 3.39 | probe 1441315_s_at response, Slc19a2 (solute carrier family 19 (thiamine transporter), member 2): 2.46 | probe 1441917_s_at response, Tmem40 (transmembrane protein 40): 2.00 | probe 1442350_at response: 2.22 | probe 1442363_at response, 1110012J17Rik (RIKEN cDNA 1110012J17 gene): 2.08 | probe 1443536_at response, Slc7a11 (solute carrier family 7 (cationic amino acid transporter, y+ system), member 11): 0.39 | probe 1445758_at response: 0.47 | probe 1446791_at response, Pi15 (peptidase inhibitor 15): 1.12 | probe 1447661_at response: 0.53 | probe 1447845_s_at response, Vnn1 (vanin 1): 0.46 | probe 1448364_at response, Ccng2 (cyclin G2): 2.30 | probe 1448532_at response, Prl8a9 (prolactin family8, subfamily a, member 9): 2.70 | probe 1448562_at response, Upp1 (uridine phosphorylase 1): 2.68 | probe 1448613_at response, Ecm1 (extracellular matrix protein 1): 2.00 | probe 1448617_at response, Cd53 (CD53 antigen): 2.24 | probe 1448810_at response, Gne (glucosamine): 2.16 | probe 1448855_at response, Rassf1 (Ras association (RalGDS/AF-6) domain family member 1): 1.97 | probe 1448894_at response, Akr1b8 (aldo-keto reductase family 1, member B8): 2.01 | probe 1448978_at response, Ngef (neuronal guanine nucleotide exchange factor): 3.21 | probe 1449038_at response, Hsd11b1 (hydroxysteroid 11-beta dehydrogenase 1): 2.96 | probe 1449125_at response, Tnfaip8l1 (tumor necrosis factor, alpha-induced protein 8-like 1): 2.14 | probe 1449133_at response, Sprr1a (small proline-rich protein 1A): 2.53 | probe 1449268_at response, Gfpt1 (glutamine fructose-6-phosphate transaminase 1): 2.82 | probe 1449297_at response, Casp12 (caspase 12): 0.41 | probe 1449334_at response, Timp3 (tissue inhibitor of metalloproteinase 3): 0.43 | probe 1449367_at response, Trex2 (three prime repair exonuclease 2): 4.45 | probe 1449408_at response, Jam2 (junction adhesion molecule 2): 2.04 | probe 1449545_at response, Fgf18 (fibroblast growth factor 18): 3.88 | probe 1449965_at response, Mcpt8 (mast cell protease 8): 2.83 | probe 1450241_a_at response, Evi2a (ecotropic viral integration site 2a): 4.78 | probe 1450262_at response, Clcf1 (cardiotrophin-like cytokine factor 1): 2.62 | probe 1450276_a_at response, Scin (scinderin): 2.73 | probe 1450376_at response, Mxi1 (Max interacting protein 1): 2.20 | probe 1450430_at response, Mrc1 (mannose receptor, C type 1): 2.66 | probe 1450501_at response, Itga2 (integrin alpha 2): 3.02 | probe 1450791_at response, Nppb (natriuretic peptide precursor type B): 4.55 | probe 1450976_at response, Ndrg1 (N-myc downstream regulated gene 1): 2.23 | probe 1451006_at response, Xdh (xanthine dehydrogenase): 0.40 | probe 1451308_at response, Elovl4 (elongation of very long chain fatty acids (FEN1/Elo2, SUR4/Elo3, yeast)-like 4): 2.50 | probe 1451446_at response, Antxr1 (anthrax toxin receptor 1): 0.41 | probe 1451501_a_at response, Ghr (growth hormone receptor): 2.21 | probe 1451529_at response, Sgtb (small glutamine-rich tetratricopeptide repeat (TPR)-containing, beta): 1.91 | probe 1451798_at response, Il1rn (interleukin 1 receptor antagonist): 3.05 | probe 1452058_a_at response, Rnfl1 (ring finger protein 11): 2.07 | probe 1452087_at response, Epsti1 (epithelial stromal interaction 1 (breast)): 2.20 | probe 1452203_at response, Obfc2a (oligonucleotide/oligosaccharide-binding fold containing 2A): 2.07 | probe 1452521_a_at response, Plaur (plasminogen activator, urokinase receptor): 2.33 | probe 1453055_at response, Sema6d (sema domain, transmembrane domain (TM), and cytoplasmic domain, (semaphorin) 6D): 3.32 | probe 1453278_a_at response, Clip4 (CAP-GLY domain containing linker protein family, member 4): 2.00 | probe 1453345_at response, Nipal1 (NIPA-like domain containing 1): 3.86 | probe 1454048_a_at response, 4931408A02Rik /// LOC630876 (RIKEN cDNA 4931408A02 gene /// similar to Protein C21orf63 homolog precursor): 0.40 | probe 1454254_s_at response, 1600029D21Rik (RIKEN cDNA 1600029D21 gene): 2.37 | probe 1454649_at response, Srd5a1 (steroid 5 alpha-reductase 1): 2.02 | probe 1454699_at response, LOC100047324 /// Sesn1 (similar to Sesn1 protein /// sestrin 1): 0.50 | probe 1454710_at response, Spink2 (serine peptidase inhibitor, Kazal type 2): 2.39 | probe 1454780_at response, Galntl4 (UDP-N-acetyl-alpha-D-galactosamine:polypeptide N-acetylgalactosaminyltransferase-like 4): 0.42 | probe 1454877_at response, Sertad4 (SERTA domain containing 4): 0.40
